Key:
[1] = assay type: physicochemical
Description: The dimethyl isosorbide is capable of solubilizing up to 200 g per liter of neat propyl magnolol or isopropyl magnolol, up to 100 g per liter of isobutyl magnolol, or up to 50 g per liter of butyl magnolol. In certain embodiments, the amount of dimethyl isosorbide is at least 5 times the weight of the propyl magnolol or isopropyl magnolol in the composition. In certain embodiments, the amount of dimethyl isosorbide is at least 10 times the weight of isobutyl magnolol in the composition. In certain embodiments, the amount of dimethyl isosorbide is at least 20 times the weight of butyl magnolol in the composition.

[2] = Solubilizing isobutyl magnolol with other solubilizers; assay type: physicochemical
Description: It was surprising that dimethyl isosorbide was able to solubilize these analogs.

CCCCc1ccc(O)c(-c2cc(CCCC)ccc2O)c1 [butyl magnolol, 5,5′-di-n-butylbiphenyl-2,2′-diol]
amount of neat magnolol analog solubilized by dimethyl isosorbide [1]: up to 50 g per liter

CC(C)Cc1ccc(O)c(-c2cc(CC(C)C)ccc2O)c1 [isobutyl magnolol, 5,5′-di-isobutylbiphenyl-2,2′-diol]
amount of neat magnolol analog solubilized by dimethyl isosorbide [1]: up to 100 g per liter
ability to solubilize ([2]; solubilizer C12-15 alkyl benzoate): not able to solubilize
ability to solubilize ([2]; solubilizer PEG-7 glyceryl cocoate): not able to solubilize
ability to solubilize ([2]; solubilizer PEG-8/SMDI copolymer): not able to solubilize
ability to solubilize ([2]; solubilizer PPG-2 hydroxyethyl cocoamide): not able to solubilize
ability to solubilize ([2]; solubilizer PPG-5 laureth-5 (Eumulgin ES)): not able to solubilize
ability to solubilize ([2]; solubilizer isopropyl myristate): not able to solubilize
ability to solubilize ([2]; solubilizer poloxamer 124): not able to solubilize

CC(C)c1ccc(O)c(-c2cc(C(C)C)ccc2O)c1 [isopropyl magnolol, 5,5′-di-isopropylbiphenyl-2,2′-diol]
amount of neat magnolol analog solubilized by dimethyl isosorbide [1]: up to 200 g per liter

CCCc1ccc(O)c(-c2cc(CCC)ccc2O)c1 [propyl magnolol, 5,5′-di-n-propylbiphenyl-2,2′-diol]
amount of neat magnolol analog solubilized by dimethyl isosorbide [1]: up to 200 g per liter
